# Reference: PubChem BioAssay (NCI)
#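 All cell lines were grown in 96-well plates and treated with compound for 48 hours. At the GI50, growth is halved. Definition used: TGI = concentration required for complete inhibition of growth.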
# What was measured:
# Assay in all cases: inhibition of tumour cell growth, NCI panel, 48 h
# M14 melanoma = tested on: M14 melanoma
# HOP-62 NSCLC = tested on: HOP-62 NSCLC
# UACC-257 melanoma = tested on: UACC-257 melanoma
# SK-MEL-5 melanoma = tested on: SK-MEL-5 melanoma
# A498 renal = tested on: A498 renal
# HCT-116 colon = tested on: HCT-116 colon
# CCRF-CEM leukemia = tested on: CCRF-CEM leukemia
# CAKI-1 renal = tested on: CAKI-1 renal
# DU-145 prostate = tested on: DU-145 prostate
# OVCAR-3 ovarian = tested on: OVCAR-3 ovarian
Structure (SMILES),GI50 (M14 melanoma) [µM],TGI (M14 melanoma) [µM],GI50 (HOP-62 NSCLC) [µM],TGI (HOP-62 NSCLC) [µM],GI50 (UACC-257 melanoma) [µM],TGI (UACC-257 melanoma) [µM],GI50 (SK-MEL-5 melanoma) [µM],TGI (SK-MEL-5 melanoma) [µM],GI50 (A498 renal) [µM],TGI (A498 renal) [µM],GI50 (HCT-116 colon) [µM],TGI (HCT-116 colon) [µM],GI50 (CCRF-CEM leukemia) [µM],TGI (CCRF-CEM leukemia) [µM],GI50 (CAKI-1 renal) [µM],TGI (CAKI-1 renal) [µM],GI50 (DU-145 prostate) [µM],TGI (DU-145 prostate) [µM],GI50 (OVCAR-3 ovarian) [µM],TGI (OVCAR-3 ovarian) [µM]
C=C(C)[C@@H]1CC[C@]2(C(=O)O)CC[C@]3(C)[C@H](CC[C@@H]4[C@@]5(C)C/C(=C/c6cccc(I)c6)C(=O)C(C)(C)[C@@H]5CC[C@]43C)[C@@H]12,2.14,5.21,3.24,12.6,2.51,8.23,1.8,3.44,2.1,6.72,1.78,3.53,2.74,10.3,2.22,10.7,2.63,7.84,1.78,3.7
C[C@@H](Oc1cc(-n2cnc3ccc(OCC4CCN(C)CC4)cc32)sc1C(N)=O)c1ccccc1Cl,0.0561,3.12,0.0977,3.55,0.117,4.99,0.0929,1.26,0.0927,0.713,0.0617,3.05,0.00965,0.856,0.774,4.81,0.0528,0.141,0.0577,2.97
CC(C)=CC(=O)N[C@@H]1CC2CCC3C(CC[C@@]4(C)C3CC[C@@H]4C(C)N(C)C)[C@@]2(C)C[C@@H]1O (stereo not given in full),1.86,3.69,4.3,9.85,3.53,11.2,1.57,4.17,5.19,28.8,1.63,5.27,4.85,28.9,5.96,23.9,10.7,> 100,5.14,21.9
O=C1/C(=C/c2ccc(Cl)cc2)CCC1CN1CCOCC1 (stereo not given),–,19.4,–,35.1,–,21.8,–,26.1,–,36,–,17.8,–,6.84,–,9.46,–,16.1,–,15
CN(C)CC1CCCCCC(Br)C1=O (stereo not given),–,37.5,–,47.3,–,23,–,30.3,–,> 100,–,5.1,–,3.15,–,16,–,25,–,21.6
COc1ccc2c(c1)C(=O)c1c-2c(N2CCN(C(=O)CNCCN(C)C)CC2)nc2ccccc12,1.88,3.52,1.86,4.18,1.95,3.7,4.49,16.7,2.14,5,1.22,2.7,1.39,4.5,3.86,17.6,3.32,13.3,2.01,5.76
O=C(c1nn(-c2ccc(Cl)cc2)cc1O)n1nc(C(F)(F)F)cc1-c1ccccc1,3.69,> 52.2,1.84,> 76.9,2.25,18.2,2.07,16.7,5.93,> 73.9,1.91,> 100,0.738,> 33.8,1.89,> 36.8,8.47,> 100,2.25,> 100
